Test results as given in US20220283158A1, “METHOD OF IDENTIFYING PEPTIDE ANTIGENS AND USES THEREOF” (HUMANIRAS MIRASOLE S.P.A., priority 2019, published 2022).

The substances below were run on C57BL6/J 8-week-old male mice (assay: Immunization of healthy mice with single peptides in adjuvant, echocardiography of heart functionality). Conditions: s.c. 100 μg peptide in CFA day 0, boost in IFA day 21; echocardiography at 2, 5 and 9 weeks; versus CTR- (only CFA).
Format: in vivo, mouse
Procedure: C57BL6/J 8-week-old male mice were screened at baseline for heart functionality, via echocardiography, and randomly divided into 5 experimental groups. Mice belonging to control group (CTR-, only CFA) were injected subcutaneously (immunized, but without antigen: negative control) with 100 μl Complete Freud's Adjuvant (CFA) at day 0 and boosted with 100 μl of Incomplete Freud's Adjuvant (IFA) on day 21. Mice belonging to group 3 (CTR+) were injected subcutaneously (immunized, known antigen: positive control) with 100 μg of each of the three peptides (SEQ ID NOs. 15-17) derived from beta-adrenergic receptor and listed in the Table of FIG. 4, emulsified in Complete Freud's Adjuvant (CFA) at day 0 and boosted with 100 μg of the three peptides emulsified in Incomplete Freud's Adjuvant (IFA) on day 21. Mice belonging to group 4_A (Peptide 4_A) were injected subcutaneously (immunized) with 100 μg of the peptide of SEQ ID NO. 1, derived from 14-3-3 protein, emulsified in Complete Freud's Adjuvant (CFA) at day 0 and boosted with 100 μg of each of the three peptides emulsified in Incomplete Freud's Adjuvant (IFA) on day 21. Mice belonging to group 4_B (Peptide 4_B) were injected subcutaneously (immunized) with 100 μg of the peptide of SEQ ID NO. 5, derived from Snrpd1 protein, emulsified in Complete Freud's Adjuvant (CFA) at day 0 and boosted with 100 μg of each of the three peptides emulsified in Incomplete Freud's Adjuvant (IFA) on day 21. Mice belonging to group 4_C (Peptide 4_C) were injected subcutaneously (immunized) with 100 μg of the peptide of SEQ ID NO. 14, derived from Atp5o protein, emulsified in Complete Freud's Adjuvant (CFA) at day 0 and boosted with 100 μg of each of the three peptides emulsified in Incomplete Freud's Adjuvant (IFA) on day 21. On day 0 and day 2, all the mice were intraperitoneally injected with 200 ng of Pertussis Toxin. Heart functionality of all mice was analyzed via echocardiography at 2, 5 and 9 weeks after the first subcutaneous injection. In FIG. 7, the results of echocardiography analysis of cardiac functionality parameters % FS and % EF of C57BL6/J mice immunized with the peptide of SEQ ID NO. 1 (14-3-3 protein), the peptide of SEQ ID NO. 5 (Snrpd1 protein), or the peptide of SEQ ID NO. 14 (Atp5o protein) are shown. […] Data are plotted as mean±SEM, (n=4-6). Two-way ANOVA and Tukey's multiple comparison test with matching subjects. * p<0.05, ** p<0.01, ***p<0.001.

| Substance | % EF | % FS |
| --- | --- | --- |
| Peptide 4_A: peptide of SEQ ID NO. 1, derived from 14-3-3 protein (LGLALNFSVFYYEIL; listed as Homo sapiens) | significantly reduced | significantly reduced |
| Peptide 4_B: peptide of SEQ ID NO. 5, derived from Snrpd1 protein (EPVQLETLSIRGNNIRYFILPDSLP; listed as Homo sapiens) | significantly reduced | significantly reduced |
| Peptide 4_C: peptide of SEQ ID NO. 14, derived from Atp5o protein (LTANLMNLLAENGRL; listed as Mus musculus) | significantly reduced | significantly reduced |
